Measurements from patent US12673041B2, “4-aminobut-2-enamide derivatives and salt thereof” (TAIHO PHARMACEUTICAL CO., LTD., priority 2019, dated 2026).
Like-named read-outs stand apart in the source and are kept apart here.

Experiments:
[1] = target: Gppcp-bound recombinant K-Ras4B G12C mutant protein (amino acids 1-169, C51S/C80L/C118S) (Homo sapiens, UniProt P01116, C118S/C51S/C80L/G12C); test: KRASG12C binding assay (LC-MS compound binding rate); settings: test compound final concentration 0.5 μM, 25° C., 1 hour
Method in brief: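 Gppcp-bound K-Ras4B G12C (aa 1-169, C51S/C80L/C118S) at 50 nM in 1×TBS, 0.1 mM TCEP, 0.25 mM MgCl2, 50 μM Gppcp was incubated 1 hour at 25° C with compound at 0.5 μM final. Intact-protein LC-MS gave binding rate as single-adduct signal over total KRAS signal, graded A (≥80%) to E (<20%).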

[2] = target: T1, GMPPNP-bound KRAS G12C protein and cRAF RAS-binding domain (cRAF-RBD) (Homo sapiens, UniProt P01116, G12C); test: Inhibitory activity on interaction between KRAS G12C and cRAF (Alpha technology); type: biochemical; settings: then cRAF-RBD, Alpha signal
T1 construct: made in house; host or cells: E. coli
Method in brief: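 GMPPNP-loaded His-KRAS G12C (aa 1-169) preincubated 1 h at 25 °C with compound (pH 7.5 Tris, 1 mM MgCl2, TCEP, Tween 20), then cRAF-RBD (aa 50-132) and Alpha reagents added for 1.5 h at RT. Inhibition scaled between DMSO (0%) and GDP-bound KRAS (100%); IC50 by curve fitting.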

MIA PaCa-2 cells = test: Growth inhibition activity on KRAS-G12C mutant cell line (MIA PaCa-2); type: cell-based; settings: Homo sapiens, 72 h; MIA PaCa-2, 3-day culture, CellTiter-Glo 3D
Description: MIA PaCa-2 cells (given by Sumitomo Dainippon Pharma Co., Ltd.), which are a KRAS-G12C mutant human pancreas cancer cell line, were suspended in a 10% fetal bovine serum-containing RPMI1640 medium (manufactured by Fujifilm Wako Pure Chemical Corporation.). The cell suspension was seeded into each well of a 384-well U bottom microplate and cultured in an incubator containing 5% CO2 gas at 37° C. for 1 day. The compounds obtained in the “Preparation of Compounds” section were used as test compounds and were dissolved in DMSO, respectively, and each test compound was diluted with DMSO to give a concentration 500 times the final concentration. The resultant solution of the test compound in DMSO was diluted with the medium used for suspending cells and added to each well of the cell-culture plate to give a DMSO final concentration of 0.2%, followed by culture in an incubator containing 5% CO2 gas at 37° C. for another 3 days. The cell count after 3-day culture in the presence of the test compound was measured using CellTiter-Glo 3D Reagent (manufactured by Promega Corporation). All wells were added with CellTiter-Glo 3D Reagent and mixed for 10 minutes. 30 minutes after mixing, luminescence was measured by a plate reader. The growth inhibition rate was calculated from the following equation, and the concentration of the test compound at which 50% inhibition was achieved (IC50 (nM)) was determined. […] Growth Inhibition Rate (%)=(C−T)/(C)×100 • T: the emission intensity in a well into which a test compound was added. • C: the emission intensity in a well into which a test compound was not added.

[3] = GMPPNP-bound KRAS G12C incubated with compound at 25° C. for 1 hour, read-out: IC50

Row | SMILES | binding rate [1] | IC50 [2, 3] | IC50 (MIA PaCa-2 cells) | IC50 ([2]; IC50, GMPPNP-bound KRAS G12C incubated with compound at 25° C. for 1 hour)
1 | CCc1nc2cc(-c3cccn4c(C(=O)c5ccc(NC(=O)/C=C/CN[C@H]6CC[C@H](OC)CC6)c(C#N)c5)ccc34)c(C(F)(F)F)cc2n1C [Example 33, (E)-N-(2-cyano-4-(8-(2-ethyl-1-methyl-6-(trifluoromethyl)-1H-benzo[d]imidazol-5-yl)indolizine-3-carbonyl)phenyl)-4-(((1r,4r)-4-methoxycyclohexyl)amino)but-2-enamide] | A (A binding rate of 80% or more is rated “A”) | 45 nM | 48 nM | –
2 | CO[C@H]1CC[C@H](NC/C=C/C(=O)Nc2ccc(C(=O)Nc3cccc(-c4cc5nc6n(c5cc4C(F)(F)F)CCC6)n3)cc2C#N)CC1 [Example 34, 3-cyano-4-((E)-4-(((1r,4r)-4-methoxycyclohexyl)amino)but-2-enamido)-N-(6-(7-(trifluoromethyl)-2,3-dihydro-1H-benzo[d]pyrrolo[1,2-a]imidazol-6-yl)pyridin-2-yl)benzamide] | A (A binding rate of 80% or more is rated “A”) | 31 nM | 92 nM | –
3 | CO[C@H]1CC[C@H](NC/C=C/C(=O)Nc2ccc(C(=O)c3c[nH]c4c(-c5cc6nc7n(c6cc5C(F)(F)F)CCC7)cccc34)cc2C#N)CC1 [Example 35, (E)-N-(2-cyano-4-(7-(7-(trifluoromethyl)-2,3-dihydro-1H-benzo[d]pyrrolo[1,2-a]imidazol-6-yl)-1H-indole-3-carbonyl)phenyl)-4-(((1r,4r)-4-methoxycyclohexyl)amino)but-2-enamide] | A (A binding rate of 80% or more is rated “A”) | 19 nM | 39 nM | –
4 | CO[C@H]1CC[C@H](NC/C=C/C(=O)Nc2ccc(C(=O)c3ccc4c(-c5cc6ncn(C)c6cc5C(F)F)cccn34)cc2C#N)CC1 [Example 36, (E)-N-(2-cyano-4-(8-(6-(difluoromethyl)-1-methyl-1H-benzo[d]imidazol-5-yl)indolizine-3-carbonyl)phenyl)-4-(((1r,4r)-4-methoxycyclohexyl)amino)but-2-enamide] | A (A binding rate of 80% or more is rated “A”) | 23 nM | 70 nM | –
5 | CCN(CC)[C@H]1CC[C@H](NC/C=C/C(=O)Nc2ccc(C(=O)Nc3cccc(-c4cc5nc6n(c5cc4C(F)(F)F)CCC6)n3)cc2C#N)CC1 [Example 37, 3-cyano-4-((E)-4-(((1r,4r)-4-(diethylamino)cyclohexyl)amino)but-2-enamido)-N-(6-(7-(trifluoromethyl)-2,3-dihydro-1H-benzo[d]pyrrolo[1,2-a]imidazol-6-yl)pyridin-2-yl)benzamide] | A (A binding rate of 80% or more is rated “A”) | 12 nM | 550 nM | –
6 | CO[C@H]1CC[C@H](NC/C=C/C(=O)Nc2ccc(C(=O)c3cn(C)c4c(-c5cc6ncn(C)c6cc5C(F)(F)F)cccc34)cc2C#N)CC1 [Example 38, (E)-N-(2-cyano-4-(1-methyl-7-(1-methyl-6-(trifluoromethyl)-1H-benzo[d]imidazol-5-yl)-1H-indole-3-carbonyl)phenyl)-4-(((1r,4r)-4-methoxycyclohexyl)amino)but-2-enamide] | A (A binding rate of 80% or more is rated “A”) | – | 88 nM | 67 nM
7 | COc1cccc(Cl)c1-c1cccn2c(C(=O)c3ccc(NC(=O)/C=C/CN[C@H]4CC[C@H](OC)CC4)c(C#N)c3)ccc12 [Example 41, (E)-N-(4-(8-(2-chloro-6-methoxyphenyl)indolizine-3-carbonyl)-2-cyanophenyl)-4-(((1r,4r)-4-methoxycyclohexyl)amino)but-2-enamide] | A (A binding rate of 80% or more is rated “A”) | 85 nM | 370 nM | –
8 | Cn1cnc2cc(-c3cccn4c(C(=O)c5ccc(NC(=O)/C=C/[C@@H]6CCCN6)c(C#N)c5)ccc34)c(C(F)(F)F)cc21 [Example 44, (S,E)-N-(2-cyano-4-(8-(1-methyl-6-(trifluoromethyl)-1H-benzo[d]imidazol-5-yl)indolizine-3-carbonyl)phenyl)-3-(pyrrolidin-2-yl) acrylamide] | A (A binding rate of 80% or more is rated “A”) | 61 nM | 350 nM | –
9 | Cn1cnc2cc(-c3cccn4c(C(=O)c5cc(F)c(NC(=O)/C=C/CNC(C)(C)C)c(F)c5)ccc34)c(C(F)(F)F)cc21 [Example 49, (2E)-4-(tert-Butylamino)-N-(2,6-difluoro-4-{8-[1-methyl-6-(trifluoromethyl)-1H-1,3-benzodiazol-5-yl]indolizine-3-carbonyl}phenyl)but-2-enamide] | A (A binding rate of 80% or more is rated “A”) | 31 nM | 75 nM | –
10 | Cn1cnc2cc(-c3cccn4c(C(=O)c5ccc(NC(=O)/C=C/CNC(C)(C)C)c(F)c5)ccc34)c(C(F)(F)F)cc21 [Example 51, (2E)-4-(tert-Butylamino)-N-(2-fluoro-4-{8-[1-methyl-6-(trifluoromethyl)-1H-1,3-benzodiazol-5-yl]indolizine-3-carbonyl}phenyl)but-2-enamide] | B (a binding rate of 60% or more and less than 80% is rated “B”) | 95 nM | 170 nM | –
11 | Cn1cnc2c(Cl)c(-c3cccn4c(C(=O)c5ccc(NC(=O)/C=C/CNC(C)(C)C)c(C#N)c5)ccc34)c(Cl)cc21 [Example 55, (E)-4-(tert-butylamino)-N-(2-cyano-4-(8-(4,6-dichloro-1-methyl-1H-benzo[d]imidazol-5-yl)indolizine-3-carbonyl)phenyl)but-2-enamide] | A (A binding rate of 80% or more is rated “A”) | 21 nM | 140 nM | –
12 | CO[C@H]1CC[C@H](NC/C=C/C(=O)Nc2ccc(C(=O)c3csc4c(-c5cc6ncn(C)c6cc5C)cccc34)cc2C#N)CC1 [Example 56, (E)-N-(2-cyano-4-(7-(1,6-dimethyl-1H-benzo[d]imidazol-5-yl)benzo[b]thiophene-3-carbonyl)phenyl)-4-(((1r,4r)-4-methoxycyclohexyl)amino)but-2-enamide] | A (A binding rate of 80% or more is rated “A”) | 86 nM | 350 nM | –
13 | Cc1cc2c(ncn2C)c(Cl)c1-c1cccn2c(C(=O)c3ccc(NC(=O)/C=C/CNC(C)(C)C)c(C#N)c3)ccc12 [Example 59, (E)-4-(tert-butylamino)-N-(4-(8-(4-chloro-1,6-dimethyl-1H-benzo[d]imidazol-5-yl)indolizine-3-carbonyl)-2-cyanophenyl)but-2-enamide] | A (A binding rate of 80% or more is rated “A”) | 19 nM | 64 nM | –
14 | CO[C@H]1CC[C@H](NC/C=C/C(=O)Nc2ccc(C(=O)c3ccc4c(-c5c(C)cc6c(ncn6C)c5Cl)cccn34)cc2C#N)CC1 [Example 60, (E)-N-(4-(8-(4-chloro-1,6-dimethyl-1H-benzo[d]imidazol-5-yl)indolizine-3-carbonyl)-2-cyanophenyl)-4-(((1r,4r)-4-methoxycyclohexyl)amino)but-2-enamide] | A (A binding rate of 80% or more is rated “A”) | 20 nM | 59 nM | –
15 | CO[C@H]1CC[C@H](NC/C=C/C(=O)Nc2ccc(C(=O)c3ccc4c(-c5c(C)cc6c(ncn6C)c5C(C)C)cccn34)cc2C#N)CC1 [Example 64, (E)-N-(2-cyano-4-(8-(4-isopropyl-1,6-dimethyl-1H-benzo[d]imidazol-5-yl)indolizine-3-carbonyl)phenyl)-4-(((1r,4r)-4-methoxycyclohexyl)amino)but-2-enamide] | A (A binding rate of 80% or more is rated “A”) | 82 nM | 69 nM | –
16 | CN(C)C/C=C/C(=O)Nc1ccc(C(=O)c2ccc3c(-c4cc5ncn(C)c5cc4C(F)(F)F)cccn23)cc1C#N [Example 66, (E)-N-(2-cyano-4-(8-(1-methyl-6-(trifluoromethyl)-1H-benzo[d]imidazol-5-yl)indolizine-3-carbonyl)phenyl)-4-(dimethylamino)but-2-enamide] | C (a binding rate of 40% or more and less than 60% is rated “C”) | 84 nM | 240 nM | –
